ChEMBL document CHEMBL5543096 (J Med Chem, 2024)

How the values were obtained:
[1] = Tmax in Sprague-Dawley rat at 0.3 mg/kg,iv measured at 0.05 to 24 hrs of post administration by LC-MS/MS analysis; type: ADME, organism-based; conditions: in vivo, time 0.05-24 hrs
[2] = AUC (0 to infinity) in Sprague-Dawley rat at 0.3 mg/kg,ip measured at 0.05 to 24 hrs of post administration by LC-MS/MS analysis; type: ADME, organism-based; conditions: in vivo, time 0.05-24 hrs
[3] = MRT (0 to last) in Sprague-Dawley rat at 0.3 mg/kg,ip measured at 0.05 to 24 hrs of post administration by LC-MS/MS analysis; type: ADME, organism-based; conditions: in vivo, time 0.05-24 hrs
[4] = Bioavailability in Sprague-Dawley rat at 0.3 mg/kg,ip measured at 0.05 to 24 hrs of post administration by LC-MS/MS analysis; type: ADME, organism-based; conditions: in vivo, time 0.05-24 hrs
Mus musculus = experiment: Antidepressant activity in Reserpine-induced depressive ICR mouse model assessed as decrease in immobility time at ip administrated on day 4 to 8 measured on day 10 by forced swimming test; type: functional, organism-based; conditions: time 7.0 day
[5] = Toxicity in chronic restraint stress-induced depressive C57BL/6J mouse model assessed as heart pathological change at 25 to 300 microg/kg,ip administrated on day 29 to 33 measured on day 36 by hematoxylin and eosin staining based microscopic analysis; type: tissue-based; conditions: in vivo, 192 h, dose 25-300 µg/kg, time 8 day
[6] = Toxicity in chronic restraint stress-induced depressive C57BL/6J mouse model assessed as liver pathological change at 25 to 300 microg/kg,ip administrated on day 29 to 33 measured on day 36 by hematoxylin and eosin staining based microscopic analysis; type: tissue-based; conditions: in vivo, 192 h, dose 25-300 µg/kg, time 8 day
[7] = Toxicity in chronic restraint stress-induced depressive C57BL/6J mouse model assessed as spleen pathological change at 25 to 300 microg/kg,ip administrated on day 29 to 33 measured on day 36 by hematoxylin and eosin staining based microscopic analysis; type: tissue-based; conditions: in vivo, 192 h, dose 25-300 µg/kg, time 8 day
[8] = Toxicity in chronic restraint stress-induced depressive C57BL/6J mouse model assessed as lung pathological change at 25 to 300 microg/kg,ip administrated on day 29 to 33 measured on day 36 by hematoxylin and eosin staining based microscopic analysis; type: tissue-based; conditions: in vivo, 192 h, dose 25-300 µg/kg, time 8 day
[9] = Toxicity in chronic restraint stress-induced depressive C57BL/6J mouse model assessed as decrease in percentage of spontaneous alternation at 1 mg/kg,ip administration by Y-maze test; type: organism-based; conditions: in vivo
[10] = Toxicity in chronic restraint stress-induced depressive C57BL/6J mouse model assessed as decrease in percentage of spontaneous alternation at 2 mg/kg,ip administration by Y-maze test; type: organism-based; conditions: in vivo
[11] = target: T1, Muscarinic acetylcholine receptor M1 (Homo sapiens, UniProt P11229); experiment: Antagonist activity at human muscarinic M1 receptor expressed in CHO cells incubated for 10 mins in presence of acetylcholine by inositol 1-phosphate accumulation assay; type: functional, cell-based
T1 sequence (P11229 whole entry): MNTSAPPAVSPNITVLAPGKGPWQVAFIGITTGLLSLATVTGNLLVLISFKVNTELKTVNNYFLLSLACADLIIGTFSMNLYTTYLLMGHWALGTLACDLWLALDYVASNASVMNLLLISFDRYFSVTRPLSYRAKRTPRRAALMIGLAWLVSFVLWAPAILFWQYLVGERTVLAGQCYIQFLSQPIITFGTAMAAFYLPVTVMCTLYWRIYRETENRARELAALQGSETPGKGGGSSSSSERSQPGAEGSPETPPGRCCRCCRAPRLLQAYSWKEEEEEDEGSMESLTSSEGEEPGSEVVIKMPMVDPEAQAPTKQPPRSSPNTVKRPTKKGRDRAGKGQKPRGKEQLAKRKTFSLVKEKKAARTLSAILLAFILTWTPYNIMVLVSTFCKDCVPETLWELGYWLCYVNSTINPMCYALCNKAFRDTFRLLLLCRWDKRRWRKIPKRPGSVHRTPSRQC

Q: For `CN1[C@@H]2C[C@@H](OC(=O)[C@@](F)(CO)c3ccccc3)C[C@H]1[C@@H]1O[C@@H]12`, which Tmax [1] is on record?
A: 3 min

Q: What about the AUC(0-inf) [2] of the same molecule?
A: 25.9 ng·h/mL

Q: And the MRT last [3]?
A: 23 min

Q: And the bioavailability [4]?
A: 35.5%

Q: What about the Activity (Mus musculus) of the same molecule?
A: Dose-Dependent Effect

Q: What about the Activity [5] of the same molecule?
A: Non-Toxic

Q: And the Activity [6]?
A: Non-Toxic

Q: And the Activity [7]?
A: Non-Toxic

Q: And the Activity [8]?
A: Non-Toxic

Q: And the Activity [9]?
A: Non-Toxic

Q: What about the Activity [10] of the same molecule?
A: Non-Toxic

Q: What about the IC50 [11] of the same molecule?
A: 14.6 nM
